{"source": "ChEMBL document CHEMBL1128166", "about": "“Synthesis and antiviral activity of rigid acyclonucleotide analogs” (Bioorg Med Chem Lett, 1995)", "key": {"[1]": {"system": "MRC5", "assay": "Anti-herpes virus activity was evaluated against human cytomegalovirus (HCMV, strain AD-169) grown in MRC-5 cells", "assay_type": "functional, cell-based"}, "[2]": {"system": "MT4", "assay": "Concentration required to inhibit HIV-1-induced cytopathic effect by 50% in MT-4 cells", "assay_type": "functional, cell-based", "conditions": "Homo sapiens"}, "[3]": {"system": "C8166", "assay": "Concentration required to inhibit p24 viral antigen production by 50% in C-8166 cells", "assay_type": "functional, cell-based", "conditions": "Homo sapiens"}, "[4]": {"system": "Vero", "assay": "The lowest concentration of compound producing overt cytotoxicity in virus-free vero cell cultures", "assay_type": "functional", "conditions": "Chlorocebus sabaeus"}, "[5]": {"system": "MRC5", "assay": "The lowest concentration of compound producing overt cytotoxicity in virus-free MRC-5 cell cultures", "assay_type": "functional", "conditions": "Homo sapiens"}, "[6]": {"system": "Vero", "assay": "Anti-herpes virus activity was evaluated against Herpes simplex virus type 1 (HSV-1,strain HF) grown in Vero cells", "assay_type": "functional, cell-based", "conditions": "Chlorocebus sabaeus"}, "[7]": {"system": "MT4", "assay": "Cytotoxic concentration required to reduce the viability of MT-4 cells", "assay_type": "functional", "conditions": "Homo sapiens"}, "[8]": {"system": "Vero", "assay": "Anti-herpes virus activity was evaluated against Herpes simplex virus type 2 (HSV-2,strain G) grown in Vero cells", "assay_type": "functional, cell-based", "conditions": "Chlorocebus sabaeus"}, "[9]": {"system": "Guanylate kinase (Sus scrofa)", "assay": "Percent efficiency phosphorylated by guanylate kinase taken from hog brain"}, "[10]": {"substrate": "Nc1nc2c(ncn2[C@@H]2O[C@H](COP(=O)(O)O)[C@@H](O)[C@H]2O)c(=O)[nH]1", "assay": "(§1) Michaelis-Menten constant (Km) for guanylate kinase was determined"}, "[11]": {"substrate": "C=C(COCP(=O)(O)O)Cn1cnc2c(O)nc(N)nc21", "assay": "as §1", "conditions": "Sus scrofa"}, "[12]": {"substrate": "C=C(COCP(=O)(O)O)Cn1cnc2c(O)nc(N)nc21", "assay": "Vmax for guanylate kinase was determined", "conditions": "Sus scrofa"}}, "data": [{"molecule": "Nc1ncnc2c1ncn2CC#CCOCP(=O)(O)O", "values": [{"measurement": "EC50", "setting": "[1]", "result": "> 250", "unit": "µM"}, {"measurement": "EC50", "setting": "[2]", "result": "> 100", "unit": "µM"}, {"measurement": "EC50", "setting": "[3]", "result": "> 100", "unit": "µM"}, {"measurement": "CC50", "setting": "[4]", "result": "≥ 250", "unit": "µM"}, {"measurement": "CC50", "setting": "[5]", "result": "> 250", "unit": "µM"}, {"measurement": "EC50", "setting": "[6]", "result": "> 250", "unit": "µM"}, {"measurement": "CC50", "setting": "[7]", "result": 800, "unit": "µM"}, {"measurement": "EC50", "setting": "[8]", "result": "> 250", "unit": "µM"}]}, {"molecule": "Cc1cn([C@H]2C[C@H](N=[N+]=[N-])[C@@H](CO)O2)c(=O)[nH]c1=O", "note": "[ZIDOVUDINE]", "values": [{"measurement": "EC50", "setting": "[2]", "result": 0.035, "unit": "µM"}, {"measurement": "EC50", "setting": "[3]", "result": 0.03, "unit": "µM"}, {"measurement": "CC50", "setting": "[7]", "result": 113, "unit": "µM"}]}, {"molecule": "Nc1ncnc2c1ncn2CCOCP(=O)(O)O", "note": "[ADEFOVIR]", "values": [{"measurement": "EC50", "setting": "[1]", "result": 36, "unit": "µM"}, {"measurement": "EC50", "setting": "[2]", "result": 22, "unit": "µM"}, {"measurement": "EC50", "setting": "[3]", "result": 1.7, "unit": "µM"}, {"measurement": "CC50", "setting": "[4]", "result": "≥ 250", "unit": "µM"}, {"measurement": "CC50", "setting": "[5]", "result": "> 250", "unit": "µM"}, {"measurement": "EC50", "setting": "[6]", "result": 58, "unit": "µM"}, {"measurement": "CC50", "setting": "[7]", "result": 187, "unit": "µM"}, {"measurement": "EC50", "setting": "[8]", "result": 69, "unit": "µM"}]}, {"molecule": "Nc1nc2c(ncn2COCCO)c(=O)[nH]1", "note": "[ACYCLOVIR]", "values": [{"measurement": "EC50", "setting": "[1]", "result": 18, "unit": "µM"}, {"measurement": "CC50", "setting": "[4]", "result": "> 100", "unit": "µM"}, {"measurement": "CC50", "setting": "[5]", "result": "≥ 100", "unit": "µM"}, {"measurement": "EC50", "setting": "[6]", "result": 6, "unit": "µM"}, {"measurement": "EC50", "setting": "[8]", "result": 3, "unit": "µM"}]}, {"molecule": "C=C(COCP(=O)(O)O)Cn1cnc2c(N)ncnc21", "values": [{"measurement": "EC50", "setting": "[1]", "result": "> 250", "unit": "µM"}, {"measurement": "EC50", "setting": "[2]", "result": "> 100", "unit": "µM"}, {"measurement": "EC50", "setting": "[3]", "result": "> 100", "unit": "µM"}, {"measurement": "CC50", "setting": "[4]", "result": "> 250", "unit": "µM"}, {"measurement": "CC50", "setting": "[5]", "result": "> 250", "unit": "µM"}, {"measurement": "EC50", "setting": "[6]", "result": 36, "unit": "µM"}, {"measurement": "CC50", "setting": "[7]", "result": "> 1000", "unit": "µM"}, {"measurement": "EC50", "setting": "[8]", "result": "> 250", "unit": "µM"}]}, {"molecule": "Nc1ncnc2c1ncn2C/C=C\\COCP(=O)(O)O", "values": [{"measurement": "EC50", "setting": "[1]", "result": "> 250", "unit": "µM"}, {"measurement": "EC50", "setting": "[2]", "result": 170, "unit": "µM"}, {"measurement": "EC50", "setting": "[3]", "result": 38, "unit": "µM"}, {"measurement": "CC50", "setting": "[4]", "result": "≥ 250", "unit": "µM"}, {"measurement": "CC50", "setting": "[5]", "result": "> 250", "unit": "µM"}, {"measurement": "EC50", "setting": "[6]", "result": "> 250", "unit": "µM"}, {"measurement": "CC50", "setting": "[7]", "result": "> 1000", "unit": "µM"}, {"measurement": "EC50", "setting": "[8]", "result": "> 250", "unit": "µM"}]}, {"molecule": "C=C(COCP(=O)(O)O)Cn1cnc2c(O)nc(N)nc21", "values": [{"measurement": "EC50", "setting": "[1]", "result": 34, "unit": "µM"}, {"measurement": "EC50", "setting": "[2]", "result": 25, "unit": "µM"}, {"measurement": "EC50", "setting": "[3]", "result": 1.9, "unit": "µM"}, {"measurement": "CC50", "setting": "[4]", "result": "> 250", "unit": "µM"}, {"measurement": "CC50", "setting": "[5]", "result": "> 250", "unit": "µM"}, {"measurement": "EC50", "setting": "[6]", "result": "> 250", "unit": "µM"}, {"measurement": "CC50", "setting": "[7]", "result": 1800, "unit": "µM"}, {"measurement": "EC50", "setting": "[8]", "result": "> 250", "unit": "µM"}, {"measurement": "Efficacy", "setting": "[9]", "result": 0.6, "unit": "%"}]}, {"molecule": "Nc1nc(O)c2ncn(C/C=C\\COCP(=O)(O)O)c2n1", "values": [{"measurement": "EC50", "setting": "[1]", "result": "> 250", "unit": "µM"}, {"measurement": "EC50", "setting": "[2]", "result": "> 100", "unit": "µM"}, {"measurement": "EC50", "setting": "[3]", "result": "> 100", "unit": "µM"}, {"measurement": "CC50", "setting": "[4]", "result": "> 250", "unit": "µM"}, {"measurement": "CC50", "setting": "[5]", "result": "> 250", "unit": "µM"}, {"measurement": "EC50", "setting": "[6]", "result": 37, "unit": "µM"}, {"measurement": "CC50", "setting": "[7]", "result": "> 1000", "unit": "µM"}, {"measurement": "EC50", "setting": "[8]", "result": "> 250", "unit": "µM"}]}, {"molecule": "Nc1ccn(C/C=C\\COCP(=O)(O)O)c(=O)n1", "values": [{"measurement": "EC50", "setting": "[1]", "result": "> 250", "unit": "µM"}, {"measurement": "EC50", "setting": "[2]", "result": "> 100", "unit": "µM"}, {"measurement": "EC50", "setting": "[3]", "result": "> 100", "unit": "µM"}, {"measurement": "CC50", "setting": "[4]", "result": "> 250", "unit": "µM"}, {"measurement": "CC50", "setting": "[5]", "result": "> 250", "unit": "µM"}, {"measurement": "EC50", "setting": "[6]", "result": "> 250", "unit": "µM"}, {"measurement": "CC50", "setting": "[7]", "result": "> 100", "unit": "µM"}, {"measurement": "EC50", "setting": "[8]", "result": "> 250", "unit": "µM"}]}, {"molecule": "Nc1ccn(CC#CCOCP(=O)(O)O)c(=O)n1", "values": [{"measurement": "EC50", "setting": "[1]", "result": "> 250", "unit": "µM"}, {"measurement": "EC50", "setting": "[2]", "result": "> 100", "unit": "µM"}, {"measurement": "EC50", "setting": "[3]", "result": "> 100", "unit": "µM"}, {"measurement": "CC50", "setting": "[4]", "result": "> 250", "unit": "µM"}, {"measurement": "CC50", "setting": "[5]", "result": "> 250", "unit": "µM"}, {"measurement": "EC50", "setting": "[6]", "result": "> 250", "unit": "µM"}, {"measurement": "CC50", "setting": "[7]", "result": "> 100", "unit": "µM"}, {"measurement": "EC50", "setting": "[8]", "result": "> 250", "unit": "µM"}]}, {"molecule": "C=C(COCP(=O)(O)O)Cn1ccc(N)nc1=O", "values": [{"measurement": "EC50", "setting": "[1]", "result": "> 250", "unit": "µM"}, {"measurement": "EC50", "setting": "[2]", "result": "> 100", "unit": "µM"}, {"measurement": "EC50", "setting": "[3]", "result": "> 100", "unit": "µM"}, {"measurement": "CC50", "setting": "[4]", "result": "> 250", "unit": "µM"}, {"measurement": "CC50", "setting": "[5]", "result": "> 250", "unit": "µM"}, {"measurement": "EC50", "setting": "[6]", "result": "> 250", "unit": "µM"}, {"measurement": "CC50", "setting": "[7]", "result": "> 100", "unit": "µM"}, {"measurement": "EC50", "setting": "[8]", "result": "> 250", "unit": "µM"}]}, {"molecule": "Guanylate kinase (Homo sapiens), Q16774 (protein) MSGPRPVVLSGPSGAGKSTLLKRLLQEHSGIFGFSVSHTTRNPRPGEENGKDYYFVTREVMQRDIAAGDFIEHAEFSGNLYGTSKVAVQAVQAMNRICVLDVDLQGVRNIKATDLRPIYISVQPPSLHVLEQRLRQRNTETEESLVKRLAAAQADMESSKEPGLFDVVIINDSLDQAYAELKEALSEEIKKAQRTGA", "values": [{"measurement": "Km", "setting": "[10]", "result": 18, "unit": "µM"}, {"measurement": "Km", "setting": "[11]", "result": 238, "unit": "µM"}, {"measurement": "Vmax", "setting": "[12]", "result": 8, "unit": "%"}]}]}
